{"source": "patent US9315472B2", "about": "“1,3,5-triazinane-2,4,6-trione derivatives and uses thereof” (Massachusetts Institute of Technology, priority 2013, dated 2016)", "origin": "cited, not measured here", "key": {"[1]": {"details": "mouse, in vivo, po"}, "[2]": {"details": "rat, in vivo, po"}}, "note": "Like-named read-outs stand apart in the source and are kept apart here.", "data": [{"smiles": "O=c1n(CC2CO2)c(=O)n(CC2CO2)c(=O)n1CC1CO1", "note": "(centres unmarked) [Compound 1]", "values": [{"measurement": "tolerability", "setting": "[1]", "result": "tolerated"}, {"measurement": "tolerability", "setting": "[2]", "result": "tolerated"}]}]}
